In US20060100431A1, “Biologically active compounds” (Amura Therapeutics Limited, priority 2002, published 2006):

target: Wild-type cruzipain (Trypanosoma cruzi, UniProt P25779); test: Trypanosoma cruzi cruzipain peptidase activity assay (Ki); assay type: biochemical; conditions: read-out: Ki, inhibitors of cruzain and cruzipains
Experimental: Unless otherwise stated, all general chemicals and biochemicals were purchased from either the Sigma Chemical Company, Poole, Dorset, U.K or from Fisher Scientific UK, Loughborough, Leicestershire, U.K. Absorbance assays were carried out in flat-bottomed 96-well plates (Spectra; Greiner Bio-One Ltd., Stonehouse, Gloucestershire, U.K.) using a SpectraMax PLUS384 plate reader (Molecular Devices, Crawley, U.K.). Fluorescence high throughput assays were carried out in either 384-well microtitre plates (Corning Costar 3705 plates, Fisher Scientific) or 96-well ‘U’ bottomed Microfluor W1 microtitre plates (Thermo Labsystems, Ashford, Middlesex, U.K.). Fluorescence assays were monitored using a SpectraMax Gemini fluorescence plate reader (Molecular Devices). For substrates employing either a 7-amino-4-methylcoumarin (AMC) or a 7-amino-4-trifluoromethylcoumarin (AFC) fluorophore, assays were monitored at an excitation wavelength of 365 nm and an emission wavelength of 450 nm and the fluorescence plate reader calibrated with AMC. For substrates employing a 3-amino-benzoyl (Abz) fluorophore, assays were monitored at an excitation wavelength of 310 nm and an emission wavelength of 445 nm; the fluorescence plate reader calibrated with 3-amino-benzamide (Fluka). Unless otherwise indicated, all the peptidase substrates were purchased from Bachem UK, St Helens, Merseyside, UK. Substrates utilizing fluorescence resonance energy transfer methodology (i.e. FRET-based substrates) were synthesized at Incenta Limited using published methods (Atherton & Sheppard, Solid Phase Peptide Synthesis, IRL Press, Oxford, U.K, 1989) and employed Abz (2-aminobenzoyl) as the fluorescence donor and 3-nitro-tyrosine [Tyr(NO2)] as the fluorescence quencher (Meldal, M. and Breddam, K., Anal. Biochem, 195, 141-147, 1991). Hydroxyethylpiperazine ethanesulfonate (HEPES), tris-hydroxylmethyl aminomethane (tris) base, bis-tris-propane and all the biological detergents (e.g. CHAPS, zwittergents, etc.) were purchased from CN Biosciences UK, Beeston, Nottinghamshire, U.K. Glycerol was purchased from Amersham Pharmacia Biotech, Little Chalfont, Buckinghamshire, U.K. Stock solutions of substrate or inhibitor were made up to 10 mM in 100% dimethylsulfoxide (DMSO) (Rathburns, Glasgow, U.K.) and diluted as appropriately required. In all cases the DMSO concentration in the assays was maintained at less than 1% (vol./vol.).
Assay protocols were based on literature precedent (Table 4; Barrett, A. J., Rawlings, N. D. and Woessner, J. F., 1998, Handbook of Proteolytic Enzymes, Academic Press, London and references therein) and modified as required to suit local assay protocols. Enzyme was added as required to initiate the reaction and the activity, as judged by the change in fluorescence upon conversion of substrate to product, was monitored over time. All assays were carried out at 25±1° C.
Wild-type cruzipain, derived from Trypanosoma cruzi Dm28 epimastigotes, was obtained from Dr. Julio Scharfstein (Instituto de Biofisica Carlos Chagas Filho, Universidade Federal do Rio de Janeiro, Rio de Janeiro, Brazil). Activity assays were carried out in 100 mM sodium phosphate, pH 6.75 containing 1 mM EDTA and 10 mM L-cysteine using 2.5 nM enzyme. […] The rate of conversion of substrate to product was derived from the slope of the increase in fluorescence monitored continuously over time.
The apparent inhibition constant (Ki) for each compound was determined on the basis that inhibition was reversible and occurred by a pure-competitive mechanism. The Ki values were calculated, from the dependence of enzyme activity as a function of inhibitor concentration, by direct regression analysis (Prism v 3.02) using Equation 2 (Cornish-Bowden, A., 1995.). [formula]

Wild-type cruzipain, sequence (P25779 whole entry): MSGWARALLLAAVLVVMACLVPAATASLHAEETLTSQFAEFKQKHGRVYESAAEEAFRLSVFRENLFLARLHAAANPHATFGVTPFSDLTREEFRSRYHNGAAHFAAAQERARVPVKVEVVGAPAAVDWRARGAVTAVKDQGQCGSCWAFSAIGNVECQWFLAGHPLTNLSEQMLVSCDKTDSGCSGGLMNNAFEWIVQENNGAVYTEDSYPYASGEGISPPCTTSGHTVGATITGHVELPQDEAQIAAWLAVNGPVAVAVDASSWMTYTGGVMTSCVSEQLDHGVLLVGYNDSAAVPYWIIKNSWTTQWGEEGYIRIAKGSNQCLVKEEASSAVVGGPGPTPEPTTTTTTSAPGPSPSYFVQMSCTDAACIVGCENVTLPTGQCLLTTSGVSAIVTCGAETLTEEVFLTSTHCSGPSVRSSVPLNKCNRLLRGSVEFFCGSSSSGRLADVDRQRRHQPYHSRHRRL

Ki, < 5 µM:
CC(C)C[C@H](NC(=O)c1ccc(N(C)C)cc1)C(=O)N1CC[C@@H]2[C@H]1C(=O)CN2C(=O)c1ccc(N2CCOCC2)nc1 [Example 94, (3aR,6aS)-4-Dimethylamino-N-{(1S)-3-methyl-1-[4-(6-morpholin-4-yl-pyridine-3-carbonyl)-6-oxo-hexahydro-pyrrolo[3,2-b]pyrrole-1-carbonyl]-butyl}-benzamide]
CC(C)C[C@H](NC(=O)c1ccc(N(C)C)cc1)C(=O)N1CC[C@@H]2[C@H]1C(=O)CN2C(=O)C1CCCO1 (stereo partly drawn) [Example 238, (3aR,6aS)-4-Dimethylamino-N-{(1S)-3-methyl-1-[6-oxo-4-(tetrahydro-furan-2-carbonyl)-hexahydro-pyrrolo[3,2-b]pyrrole-1-carbonyl]-butyl}-benzamide]
CC(C)C[C@H](NC(=O)c1ccc(N(C)C)cc1)C(=O)N1CC[C@@H]2[C@H]1C(=O)CN2C(=O)c1ccc(S(C)(=O)=O)s1 [Example 51, (3aR,6aS)-4-Dimethylamino-N-{(1S)-1-[4-(5-methanesulfonyl-thiophene-2-carbonyl)-6-oxo-hexahydro-pyrrolo[3,2-b]pyrrole-1-carbonyl]-3-methyl-butyl}-benzamide]
CC(C)C[C@H](NC(=O)c1ccc(N(C)C)cc1)C(=O)N1CC[C@@H]2[C@H]1C(=O)CN2C(=O)CN(C)C [Example 227, (3aR,6aS)-4-Dimethylamino-N-{(1S)-1-[4-(2-dimethylamino-acetyl)-6-oxo-hexahydro-pyrrolo[3,2-b]pyrrole-1-carbonyl]-3-methyl-butyl}-benzamide]
CC(C)C[C@H](NC(=O)c1ccc(N(C)C)cc1)C(=O)N1CC[C@@H]2[C@H]1C(=O)CN2C(=O)[C@@H]1CCCCN1 [Example 217, (3aR,6aS)-4-Dimethylamino-N-{(1S)-3-methyl-1-[6-oxo-4-((2S)-piperidine-2-carbonyl)-hexahydro-pyrrolo[3,2-b]pyrrole-1-carbonyl]-butyl}-benzamide]
CC(C)C[C@H](NC(=O)c1ccc(N(C)C)cc1)C(=O)N1CC[C@@H]2[C@H]1C(=O)CN2C(=O)CN1CCNCC1 [Example 241, (3aR,6aS)-4-Dimethylamino-N-{(1S)-3-methyl-1-[6-oxo-4-(2-piperazin-1-yl-acetyl)-hexahydro-pyrrolo[3,2-b]pyrrole-1-carbonyl]-butyl}-benzamide]
O=C(N[C@@H](Cc1ccc(O)cc1)C(=O)N1CC[C@@H]2[C@H]1C(=O)CN2C(=O)c1ccccc1)c1cccc2cccnc12 [Example 297, (3aR,6aS)-Quinoline-8-carboxylic acid [(1S)-2-(4-benzoyl-6-oxo-hexahydro-pyrrolo[3,2-b]pyrrole-1-yl)-1-(4-hydroxy-benzyl)-2-oxo-ethyl]-amide]
Cc1ccccc1C(=O)N1CC(=O)[C@@H]2[C@H]1CCN2C(=O)[C@H](CC(C)C)NC(=O)c1ccc(N(C)C)cc1 [Example 53, (3aR,6aS)-4-Dimethylamino-N-{(1S)-3-methyl-1-[4-(2-methyl-benzoyl)-6-oxo-hexahydro-pyrrolo[3,2-b]pyrrole-1-carbonyl]-butyl}-benzamide]
CC(C)C[C@H](NC(=O)c1ccc(N(C)C)cc1)C(=O)N1CC[C@@H]2[C@H]1C(=O)CN2C(=O)c1ccc[n+]([O-])c1 [Example 81, (3aR,6aS)-4-Dimethylamino-N-{(1S)-3-methyl-1-[6-oxo-4-(1-oxy-pyridine-3-carbonyl)-hexahydro-pyrrolo[3,2-b]pyrrole-1-carbonyl]-butyl}-benzamide]
Cc1ccc(C(=O)N2CC(=O)[C@@H]3[C@H]2CCN3C(=O)[C@H](CC(C)C)NC(=O)c2ccc(N(C)C)cc2)cc1 [Example 55, (3aR,6aS)-4-Dimethylamino-N-{(1S)-3-methyl-1-[4-(4-methyl-benzoyl)-6-oxo-hexahydro-pyrrolo[3,2-b]pyrrole-1-carbonyl]-butyl}-benzamide]
CC(C)C[C@H](NC(=O)c1ccc(N(C)C)cc1)C(=O)N1CC[C@@H]2[C@H]1C(=O)CN2C(=O)[C@@H](N)C1CCCCC1 [Example 226, (3aR,6aS)-N-{(1S)-1-[4-((2S)-2-Amino-2-cyclohexyl-acetyl)-6-oxo-hexahydro-pyrrolo[3,2-b]pyrrole-1-carbonyl]-3-methyl-butyl}-4-dimethylamino-benzamide]
CC(C)C[C@H](NC(=O)c1ccc(N(C)C)cc1)C(=O)N1CC[C@@H]2[C@H]1C(=O)CN2C(=O)C1(N)CCC1 [Example 223, (3aR,6aS)-N-{(1S)-1-[4-(1-Amino-cyclobutanecarbonyl)-6-oxo-hexahydro-pyrrolo[3,2-b]pyrrole-1-carbonyl]-3-methyl-butyl}-4-dimethylamino-benzamide]
CC(C)C[C@H](NC(=O)c1ccc(N(C)C)cc1)C(=O)N1CC[C@@H]2[C@H]1C(=O)CN2C(=O)C1(N)CCCC1 [Example 224]
CC(C)C[C@H](NC(=O)c1ccc(C(C)(C)C)cc1)C(=O)N1CC[C@@H]2[C@H]1C(=O)CN2C(=O)c1ccccn1 [Example 4, (3aR,6aS)-4-tert-Butyl-N-{(1S)-3-methyl-1-[6-oxo-4-(pyridine-2-carbonyl)-hexahydro-pyrrolo[3,2-b]pyrrole-1-carbonyl]-butyl}-benzamide]
CC(C)C[C@H](NC(=O)c1ccc(N(C)C)cc1)C(=O)N1CC[C@@H]2[C@H]1C(=O)CN2C(=O)[C@H](C)N [Example 162, (3aR,6aS)-N-{(1S)-1-[4-((2S)-2-Amino-propionyl)-6-oxo-hexahydro-pyrrolo[3,2-b]pyrrole-1-carbonyl]-3-methyl-butyl}-4-dimethylamino-benzamide]
CC(C)C[C@H](NC(=O)c1ccc(C(C)(C)C)cc1)C(=O)N1CC[C@@H]2[C@H]1C(=O)CN2C(=O)c1cccc2ccccc12 [Example 33, (3aR,6aS)-tert-Butyl-N-{(1)-3-methyl-1-[4-(naphthalene-1-carbonyl)-6-oxo-hexahydro-pyrrolo[3,2-b]pyrrole-1-carbonyl-]-butyl}-benzamide]
O=C(N[C@@H](Cc1cccc(F)c1)C(=O)N1CC[C@@H]2[C@H]1C(=O)CN2C(=O)c1ccccc1)c1cccc(Br)c1 [Example 342, (3aR,6aS)-N-[(1S)-2-(4-Benzoyl-6-oxo-hexahydro-pyrrolo[3,2-b]pyrrol-1-yl)-1-(3-fluoro-benzyl)-2-oxo-ethyl]-3-bromo-benzamide]
CC(C)C[C@H](NC(=O)c1ccc(N(C)C)cc1)C(=O)N1CC[C@@H]2[C@H]1C(=O)CN2C(=O)[C@H]1CCCN1 [Example 157, (3aR,6aS)-4-Dimethylamino-N-{(1S)-3-methyl-1-[6-oxo-4-((2R)-pyrrolidine-2-carbonyl)-hexahydro-pyrrolo[3,2-b]pyrrole-1-carbonyl]-butyl}-benzamide]
CC(=O)N[C@@H](C)C(=O)N1CC(=O)[C@@H]2[C@H]1CCN2C(=O)[C@H](CC(C)C)NC(=O)c1ccc(N(C)C)cc1 [Example 197, (3aR,6aS)-N-{(1S)-1-[4-((2S)-2-Acetylamino-propionyl)-6-oxo-hexahydro-pyrrolo[3,2-b]pyrrole-1-carbonyl]-3-methyl-butyl}-4-dimethylamino-benzamide]
CC(C)C[C@H](NC(=O)c1ccc(N(C)C)cc1)C(=O)N1CC[C@@H]2[C@H]1C(=O)CN2C(=O)C1CCCNC1 (stereo partly drawn) [Example 140, (3aR,6aS)-4-Dimethylamino-N-{(1S)-3-methyl-1-[6-oxo-4-(piperidine-3-carbonyl)-hexahydro-pyrrolo[3,2-b]pyrrole-1-carbonyl]-butyl}-benzamide]
CC(C)C[C@H](NC(=O)c1ccc(N(C)C)cc1)C(=O)N1CC[C@@H]2[C@H]1C(=O)CN2C(=O)C1CCC1 [Example 133, (3aR,6aS)-N-[(1S)-1-(4-Cyclobutanecarbonyl-6-oxo-hexahydro-pyrrolo[3,2-b]pyrrole-1-carbonyl)-3-methyl-butyl]-4-dimethylamino-benzamide]
